Assay results as given in US9732131B2, “Identification and use of novopeptides for the treatment of cancer” (Calviri Inc., priority 2006, dated 2017).

Legend:
SW480 tumor cells = assay: CTL assay (Cr release) with CTLs activated against novopeptide; assay type: cell-based, human; settings: MHC-matched SW480 cells pulsed with peptide vs unpulsed (FIG. 9)
From the text: These CTL's may then be tested for reactivity against each of (1) cancerous cells, and (2) non-cancerous cells, each having an MHC or HLA type matching that of the MHC or HLA for which the CTL's are specific.
This is a standard Cr release assay that anyone skilled in the art would be able to do.

[1] = tested on: serum antibodies of cancer patients; assay: ELISA of cancer patient serum for reactivity with novopeptide; assay type: binding, human; settings: serum from 23 cancer patients, standard ELISA (FIG. 8)
From the text: Disclosed herein are embodiments of methods for performing novopeptide immunological screens. For example, disclosed herein are embodiments of methods for immunologically screening for the existence of a B cell response to a particular novopeptide comprising assaying for the presence of antibodies reactive to that novopeptide in serum samples from individuals having a type of cancerous cells predicted to express the novopeptide, and for the absence, or presence below a prespecified titer, of such reactive antibodies in serum obtained from one or more individuals not having such cancer. The presence in sera of antibodies reactive to a given novopeptide may be detected and quantified by an ELISA assay in which the novopeptide is adsorbed onto a solid surface, serum is applied, and antibodies remaining bound to the novopeptides after washing are detected. […] However, in at least some individuals, a strong immune response develops late in the tumor progression process. Therefore, serum antibody reactivity to a candidate novopeptide, even if detected in the serum of only one or a few individuals having the cancer type in question, is strong evidence that the novopeptide is expressed in that cancer type.
Novopeptides in the FS database in association with particular tumor cell types were identified. […]

[2] = tested on: breast tumor driven by mutant rat Her2 gene; assay: Prophylactic immunization in BALB-neuT transgenic breast cancer model; assay type: in vivo; settings: BALB-neuT mice, genetic prime/boost + KLH-peptide boost; vs non-treated and negative control (FIGS. 13a, 13b)
From the text: From the candidate FS peptide sequences disclosed in Table 8 two candidates were selected for in vivo confirmation. The candidates chosen will be referred to herein as FS RBM (SEQ ID NO:232) and FS THAP2 (SEQ ID NO:238), these novopeptides having upstream in-frame portions that align with the mouse Rbm14 and Thap2 genes, respectively. […] The BALB-neuT mouse model is a transgenic mouse breast cancer model, in which all ten mammary glands of a female mouse will develop breast tumor around 20 weeks of age, driven by overexpression of a mutant rat Her2 gene.
FS RBM and FS THAP2 peptides were tested in vivo as candidate peptide components of a prophylactic anti-cancer vaccine. BALB-neuT mice were immunized at 4 to 6 weeks old (primary genetic immunization); 8 to 10 weeks old (boost genetic immunization) and 12 to 14 weeks old (boost peptide immunization). All genetic immunization had the same genetic adjuvant for each bullet for gene gun immunization: 250 ng mixed LTA-LTB/pCMVi and 2.5 μgCpG 2216. All mice received two shots at each ear by gene gun for each genetic immunization. At primary immunization, the vaccine group got two shots of bullets containing 100 ng (high dosage) or 20 ng (low dosage) mixed FS antigen plasmids per bullet; while negative group got two shots of 100 ng mixed empty plasmids for each shot. […]

4T1 breast tumor cells = assay: Prophylactic genetic immunization, 4T1 breast tumor challenge; assay type: in vivo; settings: Balb/c mice, 3.2 ng FS 1-78 LEE + 1 μg pGM-CSF, boost, challenge 1×10^4 4T1 cells; vs pGM-CSF alone and FS 6-21 controls (FIG. 5)
From the text: Immunization with a single FS-novopeptide identified based on one tumor type may be immunoprotective against a different tumor type in a different mouse strain. Disclosed herein is a procedure for such immunization. Immunization with novopeptides common to multiple types of tumors can result in cross-protection, obviating the requirement that a patient must develop a tumor before a personalized vaccine can be formulated, prepared and administered. Balb/c mice were immunized in the same manner as the C57BL6 mice in Example 2 above, with 3.2 ng of FS 1-78 LEE+1 μg of pGM-CSF, and boosted with the same gene vaccine after 2 weeks. One week after the boost, mice were challenged with 1×10^4 4 T1 breast tumor cells. Seventeen days after 4T1 challenge, tumors started to grow.

[3] = tested on: B16 F10 melanoma tumor cells; assay: Prophylactic genetic immunization (gene gun LEE + pGM-CSF), B16 F10 melanoma challenge; assay type: in vivo, C57BL6 mice
B16 melanoma line = assay: Therapeutic gene vaccine encoding SMC1A FS, B16 melanoma mouse tumor model; assay type: in vivo, mice; settings: B16 inoculated, gene vaccine one day later
Description: The FS was tested for therapeutic value as a vaccine in the mouse tumor model. The B16 melanoma line was inoculated into mice. One day later the mice were vaccinated with a gene vaccine encoding the FS.

4T1 tumor cells = assay: Prophylactic genetic immunization, BALB/C-4T1 mouse transplant breast tumor model; assay type: in vivo; settings: three peptide components given together by genetic immunization at 7 and 13 weeks; challenge 5,000 4T1 cells; vs empty vector (FIG. 15)
Description: Primary genetic immunization was administered with the three peptide components (10 mice) or with empty vector (negative controls, 4 mice) at 7 weeks old and 13 weeks old. Three weeks after the last immunization, all mice were challenged with 5,000 4T1 tumor cells. Tumor size was measured each day after palpable tumors appeared. […] Error bars show standard error.

Substance: AVLLMCQLYQpwmckeyyrll* (AVLLMCQLYQPWMCKEYYRLL; Synthetic or recombinant sequence) [FS 6-21, frameshift novopeptide, 95 bp deletion]
- CTL killing of tumor cells (SW480 tumor cells): able to kill MHC-matched tumor cells pulsed with FS 6-21 peptide
- antibody reactivity in sera of cancer patients [1]: one cancer patient in 23

Substance: FS RBM: mouse novopeptide whose upstream in-frame portion aligns with the mouse Rbm14 gene (GRVIECDVVKGSCQDGEAVHWKSAPGGHRAGDPLTLRAVREGAGM; Synthetic or recombinant sequence)
- inhibition of first tumor onset and tumor progression [2]: significant prophylactic protection

Substance: FS THAP2: mouse novopeptide whose upstream in-frame portion aligns with the mouse Thap2 gene (FDFCTHIKSLVTFGLFLRGAGCSPSSFLL; Synthetic or recombinant sequence)
- inhibition of first tumor onset and tumor progression [2]: significant prophylactic protection

Substance: IPRMQPQASAnhcqllkvmva* (LLMCQCQLYQPWMCKEYYRLL; Synthetic or recombinant peptide) [FS 1-78, frameshift novopeptide from B16-F10, 396 bp deletion in a zinc finger protein gene]
- 4T1 tumor growth (4T1 breast tumor cells): significantly delayed and reduced 4T1 tumor growth
- tumor growth ([3]; C57BL6 mice, gene gun FS 1-78 LEE + 1 μg pGM-CSF, boost 2 weeks later, challenge 1×10^5 B16 F10 cells, vs empty LEE and no immunization (FIG. 4)): tumor growth was markedly delayed
- tumor volume ([3]; highest dose (3.2 ng) of FS 1-78 LEE (FIG. 4)): tumor volume decreased after the already delayed rise

Substance: NGSGCSGVYCHEEPQGEDSSV [FS SMC-1A, novopeptide from a frameshift of the SMC1A gene]
- therapeutic effect on tumor size progression (B16 melanoma line; relative to control (FIG. 12a)): no therapeutic effect on tumor size progression
- survival time (B16 melanoma line; relative to control (FIG. 12b)): did not show significant improvement in survival time

Substance: SEQ ID NO: 310: first peptide of Table 9, frameshift predicted from mouse microsatellite locus (TLCMEVMLRWNTRELGYLYLQLCFLNTHFLHTSQEEKLLTLGRFLTWTSRCGSFVIRPL; Synthetic or recombinant sequence)
- prophylactic inhibition of tumor progression (tumor size) (4T1 tumor cells): effective in prophylactically inhibiting tumor progression

Substance: SEQ ID NO: 311: second peptide of Table 9, frameshift predicted from mouse microsatellite locus (ICMSPPLLWATLQAPETTSAACKASYRPEGLYL; Synthetic or recombinant sequence)
- prophylactic inhibition of tumor progression (tumor size) (4T1 tumor cells): effective in prophylactically inhibiting tumor progression

Substance: SEQ ID NO: 312: third peptide of Table 9, frameshift predicted from mouse microsatellite locus (YFSCDKRCIKHYAGNKSLLTFSGY; Synthetic or recombinant sequence)
- prophylactic inhibition of tumor progression (tumor size) (4T1 tumor cells): effective in prophylactically inhibiting tumor progression
